Data on ten cell lines can be found in the supplement of paper PMC10307832.

What all share (assay): relative viability (nuclei count vs DMSO), 5 days (fraction); higher = more cells survive
Compound in the test “Avagacestat + Olaparib”: NC(=O)[C@@H](CCC(F)(F)F)N(Cc1ccc(-c2ncon2)cc1F)S(=O)(=O)c1ccc(Cl)cc1 [Avagacestat] + O=C(c1cc(Cc2n[nH]c(=O)c3ccccc23)ccc1F)N1CCN(C(=O)C2CC2)CC1 [Olaparib] (partner 8 µM)
Put shortly: (§1)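 Dosing by pin tool came one day after lung cancer cell lines were seeded in 1536-well plates, using either one drug or a fixed anchor-drug dose plus five library-drug doses (not always all listed) in √10 steps. After 5 days, nuclei were counted on 4× images. Relative viability is treated-well nuclei count divided by vehicle-well nuclei count, and values are medians of duplicate plates.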

Compound in the test “Avagacestat + Alpelisib”: NC(=O)[C@@H](CCC(F)(F)F)N(Cc1ccc(-c2ncon2)cc1F)S(=O)(=O)c1ccc(Cl)cc1 [Avagacestat] + Cc1nc(NC(=O)N2CCC[C@H]2C(N)=O)sc1-c1ccnc(C(C)(C)C(F)(F)F)c1 [Alpelisib] (partner 2 µM)
Put shortly:
as §1

Compound in the test “Avagacestat + Bortezomib”: NC(=O)[C@@H](CCC(F)(F)F)N(Cc1ccc(-c2ncon2)cc1F)S(=O)(=O)c1ccc(Cl)cc1 [Avagacestat] + CC(C)C[C@H](NC(=O)[C@H](Cc1ccccc1)NC(=O)c1cnccn1)B(O)O [Bortezomib] (partner 0.002 µM)
Put shortly:
as §1

Compound in the test “Avagacestat + Pemetrexed”: NC(=O)[C@@H](CCC(F)(F)F)N(Cc1ccc(-c2ncon2)cc1F)S(=O)(=O)c1ccc(Cl)cc1 [Avagacestat] + Nc1nc2[nH]cc(CCc3ccc(C(=O)N[C@@H](CCC(=O)O)C(=O)O)cc3)c2c(=O)[nH]1 [Pemetrexed] (partner 0.2 µM)
In outline: as §1

Take A549: the relative viability with Avagacestat + Olaparib (first compound 0.08 µM) stood at 0.465; with Avagacestat + Olaparib (first compound 0.253 µM) it was 0.301; with Avagacestat + Olaparib (first compound 0.8 µM), 0.622; with Avagacestat + Olaparib (first compound 2.53 µM), 0.265; in the test with Avagacestat + Olaparib (first compound 8 µM), 0.34; in the test with Avagacestat + Alpelisib (first compound 0.08 µM), 1.02. Further, the relative viability with Avagacestat + Alpelisib (first compound 0.253 µM) is 0.99; with Avagacestat + Alpelisib (first compound 0.8 µM), 0.694; in the test with Avagacestat + Alpelisib (first compound 2.53 µM) it was 0.673; with Avagacestat + Alpelisib (first compound 8 µM), 0.771.

Regarding ABC-1, the relative viability turned out to be 0.325 in the test with Avagacestat + Bortezomib (first compound 0.08 µM); 0.294 with Avagacestat + Bortezomib (first compound 0.253 µM); 0.362 with Avagacestat + Bortezomib (first compound 0.8 µM); 0.273 in the test with Avagacestat + Bortezomib (first compound 2.53 µM); 0.271 with Avagacestat + Bortezomib (first compound 8 µM); 0.904 in the test with Avagacestat + Olaparib (first compound 0.08 µM). The relative viability amounted to 0.512 in the test with Avagacestat + Olaparib (first compound 0.253 µM); 0.836 with Avagacestat + Olaparib (first compound 0.8 µM); 0.776 with Avagacestat + Olaparib (first compound 2.53 µM); 0.757 with Avagacestat + Olaparib (first compound 8 µM); 1.11 in the test with Avagacestat + Alpelisib (first compound 0.08 µM); 1.02 with Avagacestat + Alpelisib (first compound 0.253 µM). The relative viability in the test with Avagacestat + Alpelisib (first compound 0.8 µM) stood at 1.26; in the test with Avagacestat + Alpelisib (first compound 2.53 µM), 1.11; in the test with Avagacestat + Alpelisib (first compound 8 µM) it was 1.29.

As to Calu-6, the relative viability came to 1.27 in the test with Avagacestat + Bortezomib (first compound 0.08 µM); 1.09 with Avagacestat + Bortezomib (first compound 0.253 µM); 1.08 with Avagacestat + Bortezomib (first compound 0.8 µM); 1.17 in the test with Avagacestat + Bortezomib (first compound 2.53 µM); 0.975 with Avagacestat + Bortezomib (first compound 8 µM); 0.7 with Avagacestat + Olaparib (first compound 0.08 µM). The relative viability in the test with Avagacestat + Olaparib (first compound 0.253 µM) turned out to be 0.862; in the test with Avagacestat + Olaparib (first compound 0.8 µM) it was 0.722; in the test with Avagacestat + Olaparib (first compound 2.53 µM), 0.609; with Avagacestat + Olaparib (first compound 8 µM), 0.585; with Avagacestat + Alpelisib (first compound 0.08 µM), 1.18; with Avagacestat + Alpelisib (first compound 0.253 µM), 1.16. In addition, the relative viability in the test with Avagacestat + Alpelisib (first compound 0.8 µM) came to 1.12; with Avagacestat + Alpelisib (first compound 2.53 µM), 1.12; with Avagacestat + Alpelisib (first compound 8 µM), 0.993.

With ChaGo-K-1, the relative viability in the test with Avagacestat + Bortezomib (first compound 0.08 µM) was determined as 1.02; with Avagacestat + Bortezomib (first compound 0.253 µM) it was 0.914; with Avagacestat + Bortezomib (first compound 0.8 µM), 1.14; in the test with Avagacestat + Bortezomib (first compound 2.53 µM) it was 1.32; with Avagacestat + Bortezomib (first compound 8 µM), 1.06; with Avagacestat + Olaparib (first compound 0.08 µM), 0.431. In addition, the relative viability with Avagacestat + Olaparib (first compound 0.253 µM) is 0.435; with Avagacestat + Olaparib (first compound 0.8 µM), 0.394; with Avagacestat + Olaparib (first compound 2.53 µM) it was 0.437; with Avagacestat + Olaparib (first compound 8 µM), 0.394; with Avagacestat + Pemetrexed (first compound 0.08 µM), 0.275; with Avagacestat + Pemetrexed (first compound 0.253 µM), 0.271. Moreover, the relative viability came out at 0.265 in the test with Avagacestat + Pemetrexed (first compound 0.8 µM), 0.266 with Avagacestat + Pemetrexed (first compound 2.53 µM) and 0.267 with Avagacestat + Pemetrexed (first compound 8 µM).

As to EBC-1, the relative viability with Avagacestat + Bortezomib (first compound 0.08 µM) is 0.496; in the test with Avagacestat + Bortezomib (first compound 0.253 µM) it was 0.521; with Avagacestat + Bortezomib (first compound 0.8 µM) it was 0.524; with Avagacestat + Bortezomib (first compound 2.53 µM), 0.449; in the test with Avagacestat + Bortezomib (first compound 8 µM) it was 0.381; in the test with Avagacestat + Olaparib (first compound 0.08 µM) it was 0.76. Besides, the relative viability with Avagacestat + Olaparib (first compound 0.253 µM) worked out at 0.868; with Avagacestat + Olaparib (first compound 0.8 µM), 0.704; in the test with Avagacestat + Olaparib (first compound 2.53 µM) it was 0.799; with Avagacestat + Olaparib (first compound 8 µM), 0.537; with Avagacestat + Alpelisib (first compound 0.08 µM) it was 0.691; with Avagacestat + Alpelisib (first compound 0.253 µM), 0.78. The relative viability with Avagacestat + Alpelisib (first compound 0.8 µM) was 0.743; with Avagacestat + Alpelisib (first compound 2.53 µM) it was 0.738; with Avagacestat + Alpelisib (first compound 8 µM), 0.555.

For IA-LM, the relative viability in the test with Avagacestat + Bortezomib (first compound 0.08 µM) stood at 1.39; in the test with Avagacestat + Bortezomib (first compound 0.253 µM) it was 1.28; with Avagacestat + Bortezomib (first compound 0.8 µM), 0.823; with Avagacestat + Bortezomib (first compound 2.53 µM) it was 0.855; with Avagacestat + Bortezomib (first compound 8 µM), 1.25; with Avagacestat + Olaparib (first compound 0.08 µM), 1.33. The relative viability with Avagacestat + Olaparib (first compound 0.253 µM) came to 1.37; with Avagacestat + Olaparib (first compound 0.8 µM), 1.15; with Avagacestat + Olaparib (first compound 2.53 µM), 1.06; with Avagacestat + Olaparib (first compound 8 µM) it was 1.05; with Avagacestat + Alpelisib (first compound 0.08 µM), 1.09; in the test with Avagacestat + Alpelisib (first compound 0.253 µM) it was 1.62. The relative viability with Avagacestat + Alpelisib (first compound 0.8 µM) is 1.74; in the test with Avagacestat + Alpelisib (first compound 2.53 µM), 1.43; in the test with Avagacestat + Alpelisib (first compound 8 µM), 1.16.

On to LK-2, for which the relative viability in the test with Avagacestat + Olaparib (first compound 0.08 µM) was 0.846; with Avagacestat + Olaparib (first compound 0.253 µM) it was 0.806; in the test with Avagacestat + Olaparib (first compound 0.8 µM), 0.8; with Avagacestat + Olaparib (first compound 2.53 µM) it was 0.505; with Avagacestat + Olaparib (first compound 8 µM), 0.77; with Avagacestat + Alpelisib (first compound 0.08 µM) it was 1.51. The relative viability in the test with Avagacestat + Alpelisib (first compound 0.253 µM) was 1.61; with Avagacestat + Alpelisib (first compound 0.8 µM) it was 0.949; with Avagacestat + Alpelisib (first compound 2.53 µM), 1.02; in the test with Avagacestat + Alpelisib (first compound 8 µM), 1; in the test with Avagacestat + Pemetrexed (first compound 0.08 µM), 0.272; with Avagacestat + Pemetrexed (first compound 0.253 µM), 0.294. Further, the relative viability is 0.314 with Avagacestat + Pemetrexed (first compound 0.8 µM), 0.251 with Avagacestat + Pemetrexed (first compound 2.53 µM) and 0.264 with Avagacestat + Pemetrexed (first compound 8 µM).

On to NCI-H358, for which the relative viability in the test with Avagacestat + Olaparib (first compound 0.08 µM) was determined as 0.704; with Avagacestat + Olaparib (first compound 0.253 µM), 0.559; in the test with Avagacestat + Olaparib (first compound 0.8 µM), 0.655; in the test with Avagacestat + Olaparib (first compound 2.53 µM) it was 0.596; with Avagacestat + Olaparib (first compound 8 µM), 0.562; with Avagacestat + Alpelisib (first compound 0.08 µM) it was 0.938. For the same cell line, the relative viability was 0.908 with Avagacestat + Alpelisib (first compound 0.253 µM); 0.872 with Avagacestat + Alpelisib (first compound 0.8 µM); 0.711 with Avagacestat + Alpelisib (first compound 2.53 µM); 0.777 with Avagacestat + Alpelisib (first compound 8 µM); 0.168 with Avagacestat + Pemetrexed (first compound 0.08 µM); 0.197 with Avagacestat + Pemetrexed (first compound 0.253 µM). The relative viability with Avagacestat + Pemetrexed (first compound 0.8 µM) was determined as 0.18; with Avagacestat + Pemetrexed (first compound 2.53 µM) it was 0.172; with Avagacestat + Pemetrexed (first compound 8 µM), 0.168.

Take NCI-H522: the relative viability in the test with Avagacestat + Olaparib (first compound 0.08 µM) came out at 0.566; with Avagacestat + Olaparib (first compound 0.253 µM) it was 0.715; in the test with Avagacestat + Olaparib (first compound 0.8 µM), 0.656; with Avagacestat + Olaparib (first compound 2.53 µM), 0.691; with Avagacestat + Olaparib (first compound 8 µM), 0.621; with Avagacestat + Pemetrexed (first compound 0.08 µM), 0.933. Also, the relative viability was found to be 1.27 with Avagacestat + Pemetrexed (first compound 0.253 µM), 0.774 with Avagacestat + Pemetrexed (first compound 0.8 µM), 1.04 in the test with Avagacestat + Pemetrexed (first compound 2.53 µM) and 1.07 with Avagacestat + Pemetrexed (first compound 8 µM).

Regarding NCI-H727, the relative viability in the test with Avagacestat + Bortezomib (first compound 0.08 µM) turned out to be 0.956; with Avagacestat + Bortezomib (first compound 0.253 µM), 0.927; with Avagacestat + Bortezomib (first compound 0.8 µM) it was 1.04; with Avagacestat + Bortezomib (first compound 2.53 µM), 0.981; in the test with Avagacestat + Bortezomib (first compound 8 µM) it was 0.828; with Avagacestat + Olaparib (first compound 0.08 µM), 0.735. Also, the relative viability with Avagacestat + Olaparib (first compound 0.253 µM) was 0.875; with Avagacestat + Olaparib (first compound 0.8 µM), 0.698; with Avagacestat + Olaparib (first compound 2.53 µM), 0.745; with Avagacestat + Olaparib (first compound 8 µM), 0.788; with Avagacestat + Alpelisib (first compound 0.08 µM), 0.749; with Avagacestat + Alpelisib (first compound 0.253 µM), 0.682. For the same cell line, the relative viability came to 0.695 with Avagacestat + Alpelisib (first compound 0.8 µM), 0.467 in the test with Avagacestat + Alpelisib (first compound 2.53 µM) and 0.558 in the test with Avagacestat + Alpelisib (first compound 8 µM).
